Measurements published in patent US9034865B2, “Pyrido [4,3-B] indole and pyrido [3,4-B] indole derivatives and methods of use” (Medivation Technologies, Inc., priority 2010, dated 2015).

Experiments:
[1] = biological target: T1, human recombinant histamine H1 receptor (Homo sapiens, UniProt P35367); assay: Histamine H1 radioligand binding ([3H]Pyrilamine); details: compound at 1 μM; 1.2 nM [3H]Pyrilamine; read-out: Binding data (Percentage inhibition) Histamine H1 (1 μM)
T1 construct: expressed in transfected cells; host or cells: CHO-K1
Description: To evaluate in radioligand binding assays the activity of compounds of the invention, human recombinant histamine H1 receptor expressed in Chinese hamster ovary (CHO) K1 cells (De Backer, M. et al, Biochem. Biophys. Res. Comm. 197(3):1601, 1993) in a modified Tris-HCl buffer (50 mM Tris-HCl, pH 7.4, 2 mM MgCl2, 100 mM NaCl, 250 mM Sucrose) was used. Compounds of the invention were incubated with 1.2 nM [^3H]Pyrilamine for 180 min at 25° C. Non-specific binding was estimated in the presence of 1 μM Pyrilamine. Receptor proteins were filtered and washed, the filters were then counted to determine [^3H]Pyrilamine specifically bound. Compounds were screened at 1 μM or lower, using 1% DMSO as vehicle. Biochemical assay results are presented as the percent inhibition of specific binding in Table 2.

[2] = biological target: T2, human recombinant serotonin (5-Hydroxytryptamine) 5-HT7 receptor (Homo sapiens, UniProt P34969); assay: Serotonin 5-HT7 radioligand binding ([3H]LSD); details: compound at 0.1 μM; read-out: Percentage inhibition of ligand binding, Serotonin (0.1 μM) 5-HT7
T2 construct: expressed in transfected cells; host or cells: CHO
Description: To evaluate in radioligand binding assays the activity of compounds of the invention, human recombinant serotonin (5-Hydroxytryptamine) 5-HT7 receptor expressed in Chinese hamster ovary (CHO) cells (Roth, B. et al, J. Pharmacol. Exp. Ther. 268:1403, 1994; Shen, Y. et al, J. Biol. Chem. 268:18200, 1993) in a modified Tris-HCl buffer (50 mM Tris-HCl, pH 7.4, 10 mM MgCl2, 0.5 mM EDTA) was used. Compounds of invention were incubated with 5.5 nM [^3H] Lysergic acid diethylamide (LSD) for 2 h at 25° C. Non-specific binding was estimated in the presence of 10 μM Serotonin (5-HT). Receptor proteins were filtered and washed, the filters were then counted to determine [^3H]LSD specifically bound. Compounds were screened at 1 μM or lower, using 1% DMSO as vehicle. Biochemical assay results are presented as the percent inhibition of specific binding in Table 4.

[3] = biological target: T3, human recombinant dopamine D2L receptor (Homo sapiens, UniProt P14416); assay: Dopamine D2L radioligand binding ([3H]Spiperone); details: compound at 1 μM; read-out: Percentage inhibition of ligand binding, Dopamine (1 μM) D2L
T3 construct: expressed in transfected cells; host or cells: CHO
Description: To evaluate in radioligand binding assays the activity of compounds of the invention, human recombinant dopamine D2L receptor expressed in Chinese hamster ovary (CHO) cells (Grandy, D. et al, Proc. Natl. Acad. Sci. USA. 86:9762, 1989; Hayes, G. et al, Mol. Endocrinol. 6:920, 1992) in a modified Tris-HCl buffer (50 mM Tris-HCl, pH 7.4, 1.4 mM Ascorbic Acid, 0.001% BSA, 150 mM NaCl) was used. Compounds of the invention were incubated with 0.16 nM [^3H]Spiperonefor 120 min at 25° C. Non-specific binding was estimated in the presence of 10 μM Haloperidol. Receptor proteins were filtered and washed, the filters were then counted to determine [^3H]Spiperone specifically bound. Compounds were screened at 1 μM or lower, using 1% DMSO as vehicle. Biochemical assay results are presented as the percent inhibition of specific binding in Table 3.

[4] = biological target: T4, human recombinant serotonin (5-Hydroxytryptamine) 5-HT6 receptor (Homo sapiens, UniProt P50406); assay: Serotonin 5-HT6 radioligand binding ([3H]LSD); details: compound at 0.1 μM; read-out: Percentage inhibition of ligand binding, Serotonin (0.1 μM) 5-HT6
T4 construct: expressed in transfected cells; host or cells: HeLa
Description: To evaluate in radioligand binding assays the activity of compounds of the invention, human recombinant serotonin (5-Hydroxytryptamine) 5-HT6 receptor expressed in human HeLa cells (Monsma, F. Jr. et al, Mol. Pharmacol. 43:320, 1993) in a modified Tris-HCl buffer (50 mM Tris-HCl, pH 7.4, 150 mM NaCl, 2 mM Ascorbic Acid, 0.001% BSA) was used. Compounds of the invention were incubated with 1.5 nM [3H]Lysergic acid diethylamide (LSD) for 120 min at 37° C. Non-specific binding was estimated in the presence of 5 μM Serotonin (5-HT). Receptor proteins were filtered and washed, the filters were then counted to determine [3H]LSD specifically bound. Compounds were screened at 1 μM or lower, using 1% DMSO as vehicle. Biochemical assay results are presented as the percent inhibition of specific binding in Table 4.

[5] = biological target: T5, human recombinant serotonin (5-Hydroxytryptamine) 5-HT2A receptor (Homo sapiens, UniProt P28223); assay: Serotonin 5-HT2A radioligand binding ([3H]Ketanserin); details: compound at 0.1 μM; read-out: Percentage inhibition of ligand binding, Serotonin (0.1 μM) 5-HT2A
T5 construct: expressed in transfected cells; host or cells: CHO-K1
Description: To evaluate in radioligand binding assays the activity of compounds of the invention, human recombinant serotonin (5-Hydroxytryptamine) 5-HT2A receptor expressed in Chinese hamster ovary (CHO) K1 cells (Bonhaus, D. et al, Br. J. Pharmacol. 115:622, 1995; Saucier, C. et al, J. Neurochem. 68:1998, 1997) in a 50 mM Tris-HCl buffer, pH 7.4, was used. Compounds of the invention were incubated with 0.5 nM [^3H]Ketanserin for 60 min at 25° C. Non-specific binding was estimated in the presence of 1 μM Mianserin. Receptor proteins were filtered and washed, the filters were then counted to determine [^3H]Ketanserin specifically bound. Compounds were screened at 1 μM or lower, using 1% DMSO as vehicle. Biochemical assay results are presented as the percent inhibition of specific binding in Table 4.

[6] = biological target: T6, human recombinant serotonin (5-Hydroxytryptamine) 5-HT2C receptor (Homo sapiens, UniProt P28335); assay: Serotonin 5-HT2C radioligand binding ([3H]Mesulergine); details: compound at 0.1 μM; read-out: Percentage inhibition of ligand binding, Serotonin (0.1 μM) 5-HT2C
T6 construct: expressed in transfected cells; host or cells: CHO-K1
T6 sequence (P28335 33-458): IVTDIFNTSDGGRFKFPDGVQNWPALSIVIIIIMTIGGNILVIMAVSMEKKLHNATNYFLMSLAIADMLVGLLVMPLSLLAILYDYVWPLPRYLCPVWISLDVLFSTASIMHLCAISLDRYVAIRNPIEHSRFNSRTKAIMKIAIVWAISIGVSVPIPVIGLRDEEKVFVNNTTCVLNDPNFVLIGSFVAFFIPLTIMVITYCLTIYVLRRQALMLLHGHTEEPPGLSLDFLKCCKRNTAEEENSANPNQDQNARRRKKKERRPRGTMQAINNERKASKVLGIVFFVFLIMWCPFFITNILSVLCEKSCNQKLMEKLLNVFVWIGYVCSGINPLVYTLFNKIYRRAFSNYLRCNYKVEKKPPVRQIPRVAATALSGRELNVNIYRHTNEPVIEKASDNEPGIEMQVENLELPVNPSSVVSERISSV
Description: To evaluate in radioligand binding assays the activity of compounds of the invention, human recombinant serotonin (5-Hydroxytryptamine) 5-HT2C receptor expressed in Chinese hamster ovary (CHO) K1 cells (Wolf, W. et al, J. Neurochem. 69:1449, 1997) in a modified Tris-HCl buffer (50 mM Tris-HCl, pH 7.4, 0.1% Ascorbic Acid, 10 μM Pargyline) was used. Compounds of the invention were incubated with 1 nM [^3H]Mesulergine for 60 min at 25° C. Non-specific binding was estimated in the presence of 1 μM Mianserin. Receptor proteins were filtered and washed, the filters were then counted to determine [^3H]Mesulergine specifically bound. Compounds were screened at 1 μM or lower, using 1% DMSO as vehicle. Biochemical assay results are presented as the percent inhibition of specific binding in Table 4.

T5 sequence (P28223 whole entry): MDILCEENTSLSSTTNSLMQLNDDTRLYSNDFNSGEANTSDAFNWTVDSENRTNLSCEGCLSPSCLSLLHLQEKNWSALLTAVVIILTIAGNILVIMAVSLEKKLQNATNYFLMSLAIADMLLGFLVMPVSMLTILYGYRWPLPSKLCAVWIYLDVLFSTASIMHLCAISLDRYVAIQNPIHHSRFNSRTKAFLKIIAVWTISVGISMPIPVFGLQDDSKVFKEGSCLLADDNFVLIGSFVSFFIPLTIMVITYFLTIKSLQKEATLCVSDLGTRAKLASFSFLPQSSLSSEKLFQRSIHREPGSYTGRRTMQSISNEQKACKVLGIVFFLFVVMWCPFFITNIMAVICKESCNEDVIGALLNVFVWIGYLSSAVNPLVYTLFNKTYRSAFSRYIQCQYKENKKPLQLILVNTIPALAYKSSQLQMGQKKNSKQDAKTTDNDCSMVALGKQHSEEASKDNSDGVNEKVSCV
T1 sequence (P35367 whole entry): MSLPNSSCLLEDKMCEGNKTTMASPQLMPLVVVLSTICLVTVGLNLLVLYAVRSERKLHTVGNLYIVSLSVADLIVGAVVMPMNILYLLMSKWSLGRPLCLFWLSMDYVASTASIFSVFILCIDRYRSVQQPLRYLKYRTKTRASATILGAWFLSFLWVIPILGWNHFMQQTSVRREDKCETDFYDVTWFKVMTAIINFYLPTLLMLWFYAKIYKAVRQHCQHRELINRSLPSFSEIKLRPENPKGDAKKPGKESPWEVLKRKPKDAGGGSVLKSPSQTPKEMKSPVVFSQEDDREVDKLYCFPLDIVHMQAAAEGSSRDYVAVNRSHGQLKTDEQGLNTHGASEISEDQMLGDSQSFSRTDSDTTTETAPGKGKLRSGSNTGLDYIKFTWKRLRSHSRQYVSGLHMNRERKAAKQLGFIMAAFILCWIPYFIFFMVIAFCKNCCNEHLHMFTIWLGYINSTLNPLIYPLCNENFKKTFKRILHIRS
T2 sequence (P34969 whole entry): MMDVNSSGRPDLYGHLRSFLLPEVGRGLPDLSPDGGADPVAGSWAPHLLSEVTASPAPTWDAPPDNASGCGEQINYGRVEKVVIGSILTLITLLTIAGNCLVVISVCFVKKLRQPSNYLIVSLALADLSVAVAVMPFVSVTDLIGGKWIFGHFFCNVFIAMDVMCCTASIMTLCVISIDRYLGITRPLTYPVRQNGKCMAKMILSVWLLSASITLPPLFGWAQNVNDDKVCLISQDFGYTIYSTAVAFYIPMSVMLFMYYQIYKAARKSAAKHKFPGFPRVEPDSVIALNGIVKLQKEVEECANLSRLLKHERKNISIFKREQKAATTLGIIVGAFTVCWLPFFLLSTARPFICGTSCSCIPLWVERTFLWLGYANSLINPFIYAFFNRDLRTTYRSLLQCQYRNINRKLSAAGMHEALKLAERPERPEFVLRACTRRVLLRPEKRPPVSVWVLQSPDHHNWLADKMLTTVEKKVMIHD
T3 sequence (P14416 whole entry): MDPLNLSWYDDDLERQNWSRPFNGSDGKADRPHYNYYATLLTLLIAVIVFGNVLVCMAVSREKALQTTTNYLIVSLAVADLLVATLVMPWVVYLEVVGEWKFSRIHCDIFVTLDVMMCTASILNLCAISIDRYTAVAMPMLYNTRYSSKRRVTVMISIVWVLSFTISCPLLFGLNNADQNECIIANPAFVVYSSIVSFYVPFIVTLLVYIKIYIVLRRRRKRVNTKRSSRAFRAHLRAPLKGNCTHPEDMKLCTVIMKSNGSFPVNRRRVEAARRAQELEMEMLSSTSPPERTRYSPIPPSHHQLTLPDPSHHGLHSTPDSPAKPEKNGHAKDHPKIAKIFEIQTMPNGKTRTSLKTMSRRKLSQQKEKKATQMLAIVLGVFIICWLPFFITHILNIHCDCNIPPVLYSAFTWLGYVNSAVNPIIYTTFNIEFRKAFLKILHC
T4 sequence (P50406 whole entry): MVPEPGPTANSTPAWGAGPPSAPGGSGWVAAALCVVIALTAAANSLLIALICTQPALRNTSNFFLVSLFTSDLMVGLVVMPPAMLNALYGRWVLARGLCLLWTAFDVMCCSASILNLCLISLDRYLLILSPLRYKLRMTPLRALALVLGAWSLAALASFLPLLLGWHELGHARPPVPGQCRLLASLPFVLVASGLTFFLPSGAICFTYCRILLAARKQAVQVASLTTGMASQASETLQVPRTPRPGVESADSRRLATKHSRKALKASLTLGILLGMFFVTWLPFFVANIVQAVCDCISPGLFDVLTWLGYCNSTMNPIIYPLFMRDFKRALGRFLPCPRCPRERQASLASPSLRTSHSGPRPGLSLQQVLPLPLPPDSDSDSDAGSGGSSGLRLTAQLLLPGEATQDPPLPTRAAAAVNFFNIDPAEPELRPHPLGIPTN

| Structure (SMILES) | inhibition at 1 µM [1] | inhibition at 0.1 µM [2] | inhibition at 1 µM [3] | inhibition at 0.1 µM [4] | inhibition at 0.1 µM [5] | inhibition at 0.1 µM [6] |
| --- | --- | --- | --- | --- | --- | --- |
| CN1CCc2[nH]c3c(N(C)Cc4ccccc4)cccc3c2C1 [Compound 1, benzyl-methyl-(2-methyl-2,3,4,5-tetrahydro-1H-pyrido[4,3-b]indol-6-yl)-amine] | 6% | 9% | 21% | 44% | 73% | 55% |
| Cc1cc(CCc2ccc(C)nc2)c2[nH]c3c(c2c1)CN(C)CC3 [Compound 2] | 58% | 17% | 6% | 4% | 6% | 36% |
| CN1CCc2[nH]c3c(NCc4ccccc4)cccc3c2C1 [Compound 3] | 14% | 14% | 19% | 13% | 40% | 41% |
| CN1CCc2[nH]c3c(NCc4ccncc4)cccc3c2C1 [Compound 4] | 15% | -10% | 5% | 2% | -7% | 7% |
| Cc1cc(C#Cc2ccncc2)c2[nH]c3c(c2c1)CN(C)CC3 [Compound 5] | 17% | 45% | 10% | 30% | 54% | 45% |
| Cc1cc(C#Cc2ccc(C)nc2)c2[nH]c3c(c2c1)CN(C)CC3 [Compound 6, 2,8-dimethyl-6-((6-methylpyridin-3-yl)ethynyl)-2,3,4,5-tetrahydro-1H-pyrido[4,3-b]indole] | 16% | 43% | 7% | 24% | 41% | 55% |
